Measurements reported in PMC1660542, “Structure-based discovery of inhibitors of the YycG histidine kinase: New chemical leads to combat Staphylococcus epidermidis infections” (BMC Microbiology, 2006).
≈ marks a conversion by molar mass, not a printed value. Like-named read-outs stand apart in the source and are kept apart here.

What was measured:
S. epidermidis ATCC12228 [1] = assay: Minimal bactericidal concentration (MBC) assay; assay type: cell-based; conditions: Staphylococcus epidermidis
Protocol: (§1) MIC assays for the antibacterial activities of the compounds were performed according to the broth micro-dilution (in tubes) method of the Clinical and Laboratory Standards Institute (CLSI) of America. The Minimal Bactericidal Concentration (MBC) was obtained by subculturing 100 μl from each negative (no visible bacterial growth) tube from the MIC assay, onto substance-free Mueller-Hinton agar plates. The plates were incubated at 37°C for 24 hours, and the MBC was defined as the lowest concentration of substance which produced subcultures growing no more than five colonies on each plate.

S. epidermidis RP62A = assay: Minimal bactericidal concentration (MBC) assay; assay type: cell-based; conditions: Staphylococcus epidermidis; S. epidermidis RP62A; read-out: Minimal bactericidal concentration (MBC)
Protocol: as §1

YycG' protein = biological target: T1, YycG' protein (Staphylococcus epidermidis, UniProt Q8CU87); assay: Compound-YycG' protein binding assay (SPR, Biacore 3000); conditions: SPR sensorgram shape
T1 construct: of YycG (370aa to 610aa) was amplified by PCR; His-tag (pET28a) (N); made in house; host or cells: E. coli BL21 (pET28a, pETYycG')
From the text: The YycG' fragment containing the cytoplasmic signal domains (the HATPase_c and HisKA domain, see Figure 1A) of YycG (370aa to 610aa) was amplified by PCR (with the chromosomal DNA of S. epidermidis ATCC12228 as the template, and (5' […] 3') and (5' […] 3') as the primers. Subsequently, the fragment was digested with BamHI and XholI (TAKARA, Japan) and ligated into the corresponding sites of pET28a (Promega, Madison, USA) to obtain pETYycG'. The expressed YycG' protein was purified with the ProBond™ Purification System (Invitrogen, California, USA), according to the manufacturer's protocol.
The in vitro binding affinities of the inhibitor compounds to the YycG' protein was determined using surface plasmon resonance (SPR) biosensor technology on the dual flow cell Biacore 3000 instrument (Biacore AB, Uppsala, Sweden) with a similar method as described in our previous study. Immobilization of the YycG' protein to the hydrophilic carboxymethylated dextran matrix of the sensor chip CM5 (Biacore) was carried out by the standard primary amine coupling reaction. […] The equilibrium constants (KD) evaluating the protein-ligand binding affinity were determined by the steady state or the kinetic state affinity fitting model encoded in the Biacore analysis software.

S. aureus ATCC29213 = assay: MIC assay (broth dilution in tubes, CLSI); assay type: cell-based, Staphylococcus aureus; conditions: Staphylococcus aureus; S. aureus ATCC29213; read-out: Minimal inhibitory concentration (MIC)
From the text: (§2) Staphylococcus epidermidis ATCC12228 and RP62A strains were purchased from the American Type Culture Collection (ATCC, Manassas, USA). Staphylococcus aureus ATCC29213, Escherichia coli ATCC25922 and Pseudomonas aeruginosa ATCC27853 were kindly provided by Dr. Bijie Hu at Zhongshan Hospital (Shanghai, China). S. epidermidis strains se527, se886, se847, seG203, Streptococcus pyogenes strain 144, and Streptococcus mutans strain 128 were all clinical isolates from Zhongshan Hospital and Huashan Hospital (Shanghai, China). If not stated otherwise, S. epidermidis and S. aureus strains were grown at 37°C in tryptic soy broth (TSB, Oxoid) containing 0.25% glucose, E. coli and P. aeruginosa strains were grown at 37°C in Luria-Bertani (LB, Oxoid).
as §1

S. pyogenes 144 = assay: MIC assay (broth dilution in tubes, CLSI); assay type: cell-based, Streptococcus pyogenes; conditions: Streptococcus pyogenes; S. pyogenes 144; read-out: Minimal inhibitory concentration (MIC)
From the text: as §2, §1

[2] = Erythrocyte hemolysis assay; assay type: cell-based, human; conditions: human, erythrocytes (5% suspension), 1 hour, 37°C;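 also: compounds tested at their MIC and at 4× MIC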
Protocol: (§3) Cytotoxicity of the antibacterial compounds on cultured Vero cell was measured by using the Cell Proliferation Kit I (MTT) (Roche, Indianapolis, USA) according to the manufacturer's protocol. Addition of DMSO (1%) in the medium produced a slight cytotoxicity on Vero cell, which could easily be corrected for. Each assay was performed in quadruplicate and repeated three times. The results were converted to percentage of the control (cells only treated with 1% DMSO) and CC50 (concentrations that produce a 50% cytotoxicity effect on Vero cell) was calculated by the Origin v7.0 software (OriginLab, Northampton, USA). Hemolytic activities of the compounds were determined by using healthy human erythrocytes. The erythrocytes were washed three times in sterile saline and resuspended to 5% prior to the assay. […] Cells without compound treatment and cells with 1% Triton-100 treatment were used as 0% and 100% hemolysis controls, respectively. The cell suspensions were incubated for 1 hour at 37°C and centrifuged at 1000×g for 10 min. Volumes of 100 μl supernatants were transferred to another sterile plate and hemoglobin release from the cells was determined at 570 nm. […] The hemolysis assays were repeated twice.

[3] = Cytotoxicity on Vero cell (MTT, Cell Proliferation Kit I); assay type: cell-based, African Green-monkey; conditions: African green monkey, Vero cells, highest concentration tested 200 μM
Protocol: as §3

S. epidermidis ATCC12228 [4] = assay: MIC assay (broth dilution in tubes, CLSI); assay type: cell-based, Staphylococcus epidermidis; conditions: for MIC: Staphylococcus epidermidis
From the text: as §2, §1

SrrB' = assay: Inhibition of SrrB' autophosphorylation (Kinase-Glo); assay type: biochemical, S. epidermidis; conditions: compound 50 μM, 4 μg protein, 3 μM ATP

T1 sequence (Q8CU87 370-610): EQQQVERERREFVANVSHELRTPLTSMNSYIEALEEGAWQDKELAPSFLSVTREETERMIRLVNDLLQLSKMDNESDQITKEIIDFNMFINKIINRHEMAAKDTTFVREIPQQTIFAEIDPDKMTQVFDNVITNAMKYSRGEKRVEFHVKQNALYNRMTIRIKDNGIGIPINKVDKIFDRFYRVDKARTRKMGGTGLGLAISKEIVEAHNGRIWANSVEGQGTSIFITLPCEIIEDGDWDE

SMILES: Cc1ccc(NC(=O)CN2C(=O)S/C(=C\c3ccc(OCc4cccc(C(O)O)c4)cc3)C2=O)cc1 [Compound 7]
- MBC (S. epidermidis ATCC12228 [1]): > 400 µM
- MBC (S. epidermidis RP62A): > 400 µM
- Association/dissociation pattern in SPR (YycG' protein): slow association and slow dissociation
- MIC (S. aureus ATCC29213): > 200 µM
- MIC (S. pyogenes 144): > 200 µM
- hemolysis at 1 h ([2]; at 4 × MIC (number in parenthesis)): < 0.1%
- hemolysis at 1 h ([2]; at MIC for S. epidermidis ATCC12228): < 0.1%
- CC50 [3]: > 200 µM
- Antibacterial effectiveness (S. epidermidis ATCC12228 [4]; ATCC12228 versus RP62A): only effective against the non-biofilm-forming strain ATCC12228
- MIC (S. epidermidis ATCC12228 [4]; ATCC12228, Table 2, as tested on S. epidermidis ATCC 12228, read-out: MICs): 0.2 µM (≈ 0.101 µg/mL)
- MIC (S. epidermidis ATCC12228 [4]; S. epidermidis ATCC12228 (non-biofilm-forming strain), read-out: Minimal inhibitory concentration (MIC)): 0.2 µM (≈ 0.101 µg/mL)
- Inhibition of SrrB' phosphorylation (SrrB'): 2%
